Source: US6914045B2, “Glycopeptide antibiotics” (Wyeth Holdings Corporation, priority 2001, dated 2005)
In brackets after ≈: the same amount, converted by molar mass.

What was measured:
Test in all cases: in vitro antibacterial evaluation, MIC by broth dilution
Assay type in all cases: cell-based
[1] = system: Escherichia coli; details: 18 hours at 35° C.
In short: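 Broth dilution MIC per NCCLS M7-A2 in Mueller-Hinton II medium, inoculum 5×10^5 CFU/mL, antibiotic range 64-0.06 μg/mL. MIC taken as lowest concentration inhibiting growth.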

[2] = system: Enterococcus sp.; details: broth dilution, 18 hours at 35° C.
In short: (§1)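 Read-out: the lowest concentration at which the test strain fails to grow. Serial dilutions (64-0.06 μg/mL) in Muller-Hinton II […], 5×10^5 CFU/mL inoculum, NCCLS M7-A2 procedure.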

[3] = system: Staphylococcus sp.; details: broth dilution, 18 hours at 35° C.
In short: as §1

[4] = system: Streptococcus sp.; details: broth dilution, 18 hours at 35° C.
In short: as §1

MIC Escherichia coli (ATCC 25922) [1]: 64 µg/mL (≈ 41.9 µM)
MIC Escherichia coli (GC 4559) [1]: 32 µg/mL (≈ 21 µM)
MIC Escherichia coli (GC 4560) [1]: 2 µg/mL (≈ 1.31 µM)
MIC Enterococcus avium (GC 4558) ([2]; Enterococcus avium (GC 4558)): 2 µg/mL (≈ 1.31 µM)
MIC Enterococcus faecalis (ATCC 29212) ([2]; Enterococcus faecalis (ATCC 29212)): 4 µg/mL (≈ 2.62 µM)
MIC Enterococcus faecalis (GC 4552) ([2]; Enterococcus faecalis (GC 4552)): 4 µg/mL (≈ 2.62 µM)
MIC Enterococcus faecalis (GC 4553) ([2]; Enterococcus faecalis (GC 4553)): 2 µg/mL (≈ 1.31 µM)
MIC Enterococcus faecalis (GC 4554) ([2]; Enterococcus faecalis (GC 4554)): 4 µg/mL (≈ 2.62 µM)
MIC Enterococcus faecalis (GC 6189) ([2]; Enterococcus faecalis (GC 6189)): 4 µg/mL (≈ 2.62 µM)
MIC Enterococcus faecium (GC 2243) ([2]; Enterococcus faecium (GC 2243)): 2 µg/mL (≈ 1.31 µM)
MIC Enterococcus faecium (GC 4556) ([2]; Enterococcus faecium (GC 4556)): 4 µg/mL (≈ 2.62 µM)
MIC Enterococcus faecium (GC 4557) ([2]; Enterococcus faecium (GC 4557)): 1 µg/mL (≈ 0.655 µM)
MIC Enterococcus avium (GC 4558) [2]: 2 µg/mL (≈ 1.31 µM)
MIC Enterococcus faecalis (ATCC 29212) [2]: 4 µg/mL (≈ 2.62 µM)
MIC Enterococcus faecalis (GC 2242) [2]: 4 µg/mL (≈ 2.62 µM)
MIC Enterococcus faecalis (GC 2691) [2]: 4 µg/mL (≈ 2.62 µM)
MIC Enterococcus faecalis (GC 3059) [2]: 4 µg/mL (≈ 2.62 µM)
MIC Enterococcus faecalis (GC 4552) [2]: 4 µg/mL (≈ 2.62 µM)
MIC Enterococcus faecalis (GC 4553) [2]: 2 µg/mL (≈ 1.31 µM)
MIC Enterococcus faecalis (GC 4554) [2]: 4 µg/mL (≈ 2.62 µM)
MIC Enterococcus faecalis (GC 6189) [2]: 4 µg/mL (≈ 2.62 µM)
MIC Enterococcus faecium (GC 2243) [2]: 2 µg/mL (≈ 1.31 µM)
MIC Enterococcus faecium (GC 4556) [2]: 4 µg/mL (≈ 2.62 µM)
MIC Enterococcus faecium (GC 4557) [2]: 1 µg/mL (≈ 0.655 µM)
MIC Enterococcus faecalis (GC 2242) ([2]; strain GC 2242): 4 µg/mL (≈ 2.62 µM)
MIC Enterococcus faecalis (GC 2691) ([2]; strain GC 2691): 4 µg/mL (≈ 2.62 µM)
MIC Enterococcus faecalis (GC 3059) ([2]; strain GC 3059): 4 µg/mL (≈ 2.62 µM)
MIC Coagulase Negative Staphylococcus (GC 4547) [3]: 2 µg/mL (≈ 1.31 µM)
MIC Coagulase Negative Staphylococcus (GC 4548) [3]: 1 µg/mL (≈ 0.655 µM)
MIC Coagulase Negative Staphylococcus (GC 4549) [3]: 2 µg/mL (≈ 1.31 µM)
MIC Coagulase Negative Staphylococcus (GC 4551) [3]: 2 µg/mL (≈ 1.31 µM)
MIC Staphylococcus aureus-SMITH (GC 4543) [3]: 2 µg/mL (≈ 1.31 µM)
MIC Staphylococcus aureus (ATCC 29213) ([3]; strain ATCC 29213): 2 µg/mL (≈ 1.31 µM)
MIC Staphylococcus aureus (GC 1131) ([3]; strain GC 1131): 4 µg/mL (≈ 2.62 µM)
MIC Staphylococcus aureus (GC 3051) ([3]; strain GC 3051): 4 µg/mL (≈ 2.62 µM)
MIC Staphylococcus aureus (GC 3053) ([3]; strain GC 3053): 4 µg/mL (≈ 2.62 µM)
MIC Staphylococcus aureus (GC 4541) ([3]; strain GC 4541): 2 µg/mL (≈ 1.31 µM)
MIC Staphylococcus aureus (GC 4542) ([3]; strain GC 4542): 4 µg/mL (≈ 2.62 µM)
MIC Staphylococcus aureus-SMITH (GC 4543) ([3]; strain GC 4543): 2 µg/mL (≈ 1.31 µM)
MIC Staphylococcus aureus (GC 4544) ([3]; strain GC 4544): 4 µg/mL (≈ 2.62 µM)
MIC Staphylococcus aureus (GC 4545) ([3]; strain GC 4545): 2 µg/mL (≈ 1.31 µM)
MIC Coagulase Negative Staphylococcus (GC 4547) ([3]; strain GC 4547): 2 µg/mL (≈ 1.31 µM)
MIC Coagulase Negative Staphylococcus (GC 4548) ([3]; strain GC 4548): 1 µg/mL (≈ 0.655 µM)
MIC Coagulase Negative Staphylococcus (GC 4549) ([3]; strain GC 4549): 2 µg/mL (≈ 1.31 µM)
MIC Coagulase Negative Staphylococcus (GC 4551) ([3]; strain GC 4551): 2 µg/mL (≈ 1.31 µM)
MIC Streptococcus agalactiae (GC 4564) [4]: 0.25 µg/mL (≈ 0.164 µM)
MIC Streptococcus pneumoniae (ATCC 6301) [4]: 0.5 µg/mL (≈ 0.328 µM)
MIC Streptococcus pneumoniae (GC 1894) [4]: <0.12 µg/mL
MIC Streptococcus pneumoniae (GC 4565) [4]: 0.25 µg/mL (≈ 0.164 µM)
MIC Streptococcus pyogenes (GC 4563) [4]: 0.25 µg/mL (≈ 0.164 µM)
MIC Streptococcus pneumoniae (ATCC 6301) ([4]; strain ATCC 6301): 0.5 µg/mL (≈ 0.328 µM)
MIC Streptococcus pneumoniae (GC 1894) ([4]; strain GC 1894): <0.12 µg/mL
MIC Streptococcus pyogenes (GC 4563) ([4]; strain GC 4563): 0.25 µg/mL (≈ 0.164 µM)
MIC Streptococcus agalactiae (GC 4564) ([4]; strain GC 4564): 0.25 µg/mL (≈ 0.164 µM)
MIC Streptococcus pneumoniae (GC 4565) ([4]; strain GC 4565): 0.25 µg/mL (≈ 0.164 µM)
Compound: CCCCCCCN1CC(C(O)C2NC(=O)C(C(O)C3CNC(=N)N3)NC(=O)C(Cc3ccc(OC4OC(CO)C(OC5OC6COC7(OC6C(O)C5O)C5CC6CC(C5)CC7C6)C(O)C4O)cc3)NC(=O)C(C(C)c3ccccc3)NC(=O)CNC(=O)C(CO)NC2=O)N(C2OC(CO)C(O)C(O)C2O)C1=N (stereo not drawn) [Example 83]
MIC Staphylococcus haemolyticus (GC 4546) [3]: 2 µg/mL (≈ 1.31 µM)
MIC Staphylococcus haemolyticus (GC 4546) ([3]; strain GC 4546): 2 µg/mL (≈ 1.31 µM)
